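Interpolation was linear, between the two tested concentrations surrounding the appropriate level; five concentrations were tested over 48 hours in 96-well plates. Abbreviation: GI50, concentration required for 50% inhibition of growth.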 Calls of active or inactive are those of the source. Rule as the data show it: active = GI50 up to about 1.1 µM and inactive = higher.
Key:
Assay in all cases: inhibition of tumour cell growth, NCI panel, 48 h
786-0 = tested on: 786-0
A498 = tested on: A498
A549 = tested on: A549
ACHN = tested on: ACHN
BT-549 = tested on: BT-549
CAKI-1 = tested on: CAKI-1
CCRF-CEM = tested on: CCRF-CEM
COLO 205 = tested on: COLO 205
DU-145 = tested on: DU-145
EKVX = tested on: EKVX
HCC 2998 = tested on: HCC 2998
HCT-116 = tested on: HCT-116
HCT-15 = tested on: HCT-15
HOP-62 = tested on: HOP-62
HOP-92 = tested on: HOP-92
HT-29 = tested on: HT-29
IGROV-1 = tested on: IGROV-1
K562 = tested on: K562
KM12 = tested on: KM12
LOX IMVI = tested on: LOX IMVI
M14 = tested on: M14
MCF7 = tested on: MCF7
MDA-MB-231 = tested on: MDA-MB-231
MDA-MB-435 = tested on: MDA-MB-435
MOLT-4 = tested on: MOLT-4
Malme-3M = tested on: Malme-3M
NCI-H226 = tested on: NCI-H226
NCI-H23 = tested on: NCI-H23
NCI-H460 = tested on: NCI-H460
NCI-H522 = tested on: NCI-H522
NCI/ADR-RES = tested on: NCI/ADR-RES
OVCAR-3 = tested on: OVCAR-3
OVCAR-4 = tested on: OVCAR-4
OVCAR-5 = tested on: OVCAR-5
OVCAR-8 = tested on: OVCAR-8
PC-3 = tested on: PC-3
RPMI-8226 = tested on: RPMI-8226
RXF 393 = tested on: RXF 393
SF-268 = tested on: SF-268
SF-295 = tested on: SF-295
SF-539 = tested on: SF-539
SK-MEL-28 = tested on: SK-MEL-28
SK-MEL-2 = tested on: SK-MEL-2
SK-MEL-5 = tested on: SK-MEL-5
SK-OV-3 = tested on: SK-OV-3
SN12C = tested on: SN12C
SNB-19 = tested on: SNB-19
SNB-75 = tested on: SNB-75
SR = tested on: SR
SW-620 = tested on: SW-620
TK-10 = tested on: TK-10
U-251 = tested on: U-251
UACC-257 = tested on: UACC-257
UACC-62 = tested on: UACC-62
UO-31 = tested on: UO-31
HL-60 = tested on: HL-60
Hs-578T = tested on: Hs-578T
MDA-N = tested on: MDA-N
T47D = tested on: T47D

O=C(OCC1CC(C2(O)CCCCC2)C(=O)O1)c1ccccc1 (stereo not drawn) was tested, and the GI50 (786-0) was > 100 µM (inactive), the GI50 (A498) was > 100 µM (inactive) and the GI50 (A549) was > 100 µM (inactive). The GI50 (ACHN) was > 100 µM (inactive), the GI50 (BT-549) was > 100 µM (inactive) and the GI50 (CAKI-1) was > 100 µM (inactive). The GI50 (CCRF-CEM) was > 100 µM (inactive), the GI50 (COLO 205) was > 100 µM (inactive) and the GI50 (DU-145) was > 100 µM (inactive). The GI50 (EKVX) was > 100 µM (inactive), the GI50 (HCC 2998) was > 100 µM (inactive) and the GI50 (HCT-116) was > 100 µM (inactive). The GI50 (HCT-15) was greater than 100 µM, the GI50 (HOP-62) was > 100 µM (inactive) and the GI50 (HOP-92) was 5.5 µM (inactive). The GI50 (HT-29) was > 100 µM (inactive), the GI50 (IGROV-1) was > 100 µM (inactive) and the GI50 (K562) was > 100 µM (inactive). The GI50 (KM12) was > 100 µM (inactive), the GI50 (LOX IMVI) was > 100 µM (inactive) and the GI50 (M14) was > 100 µM (inactive). For the same compound, the GI50 (MCF7) was > 100 µM (inactive), the GI50 (MDA-MB-231) was > 100 µM (inactive) and the GI50 (MDA-MB-435) was > 100 µM (inactive). For the same compound, the GI50 (MOLT-4) was > 100 µM (inactive), the GI50 (Malme-3M) was > 100 µM (inactive) and the GI50 (NCI-H226) was > 100 µM (inactive). The GI50 (NCI-H23) was > 100 µM (inactive), the GI50 (NCI-H460) was 71.8 µM (inactive) and the GI50 (NCI-H522) was > 100 µM (inactive). The GI50 (NCI/ADR-RES) was > 100 µM (inactive), the GI50 (OVCAR-3) was > 100 µM (inactive) and the GI50 (OVCAR-4) was > 100 µM (inactive). The GI50 (OVCAR-5) was > 100 µM (inactive), the GI50 (OVCAR-8) was > 100 µM (inactive) and the GI50 (PC-3) was > 100 µM (inactive). The GI50 (RPMI-8226) was > 100 µM (inactive), the GI50 (RXF 393) was > 100 µM (inactive) and the GI50 (SF-268) was > 100 µM (inactive). For the same compound, the GI50 (SF-295) was > 100 µM (inactive), the GI50 (SF-539) was > 100 µM (inactive) and the GI50 (SK-MEL-28) was > 100 µM (inactive). For the same compound, the GI50 (SK-MEL-2) was > 100 µM (inactive), the GI50 (SK-MEL-5) was > 100 µM (inactive) and the GI50 (SK-OV-3) was > 100 µM (inactive). The GI50 (SN12C) was > 100 µM (inactive), the GI50 (SNB-19) was > 100 µM (inactive) and the GI50 (SNB-75) was > 100 µM (inactive). The GI50 (SR) was > 100 µM (inactive), the GI50 (SW-620) was > 100 µM (inactive) and the GI50 (TK-10) was > 100 µM (inactive). The GI50 (U-251) was > 100 µM (inactive), the GI50 (UACC-257) was > 100 µM (inactive) and the GI50 (UACC-62) was > 100 µM (inactive). The GI50 (UO-31) was 55.8 µM (inactive).

C=C1C(=O)CC2C1CC(=O)/C(C)=C/CCC(C)(O)C2O (stereo not drawn) was tested, and the GI50 (786-0) was 4.55 µM (inactive), the GI50 (A498) was 1.19 µM (inactive) and the GI50 (A549) was 27.3 µM (inactive). For the same compound, the GI50 (ACHN) was 2.37 µM (inactive), the GI50 (CAKI-1) was 1.55 µM (inactive) and the GI50 (CCRF-CEM) was 3.44 µM (inactive). The GI50 (COLO 205) was 2.03 µM (inactive), the GI50 (DU-145) was 8.77 µM (inactive) and the GI50 (EKVX) was 18.7 µM (inactive). The GI50 (HCC 2998) was 7.74 µM (inactive), the GI50 (HCT-116) was 3.86 µM (inactive) and the GI50 (HCT-15) was 4.9 µM. The GI50 (HL-60) was 4.41 µM (inactive), the GI50 (HOP-62) was 26.7 µM (inactive) and the GI50 (HOP-92) was 8.67 µM (inactive). For the same compound, the GI50 (HT-29) was 14.6 µM (inactive), the GI50 (Hs-578T) was 5.4 µM (inactive) and the GI50 (IGROV-1) was 10.6 µM (inactive). The GI50 (K562) was 2.19 µM (inactive), the GI50 (KM12) was 13.8 µM (inactive) and the GI50 (LOX IMVI) was 5.47 µM (inactive). For the same compound, the GI50 (M14) was > 25.2 µM (inactive), the GI50 (MCF7) was 0.249 µM (active) and the GI50 (MDA-MB-231) was 1.07 µM (active). For the same compound, the GI50 (MDA-MB-435) was 6.55 µM (inactive), the GI50 (MDA-N) was 1.48 µM (inactive) and the GI50 (MOLT-4) was 1.57 µM (inactive). The GI50 (Malme-3M) was 1.36 µM (inactive), the GI50 (NCI-H226) was 30.9 µM (inactive) and the GI50 (NCI-H23) was 8.17 µM (inactive). The GI50 (NCI-H460) was 2.38 µM (inactive), the GI50 (NCI-H522) was 1.5 µM (inactive) and the GI50 (NCI/ADR-RES) was 8.2 µM (inactive). The GI50 (OVCAR-3) was 7.16 µM (inactive), the GI50 (OVCAR-4) was 10.9 µM (inactive) and the GI50 (OVCAR-5) was 17.5 µM (inactive). For the same compound, the GI50 (OVCAR-8) was 4.3 µM (inactive), the GI50 (PC-3) was 0.853 µM (active) and the GI50 (RPMI-8226) was 1.41 µM (inactive). For the same compound, the GI50 (RXF 393) was 6.67 µM (inactive), the GI50 (SF-268) was 18.1 µM (inactive) and the GI50 (SF-295) was 27.4 µM (inactive). For the same compound, the GI50 (SK-MEL-28) was 14.9 µM (inactive), the GI50 (SK-MEL-2) was 0.986 µM (active) and the GI50 (SK-MEL-5) was 6.79 µM (inactive). For the same compound, the GI50 (SK-OV-3) was 2.84 µM (inactive), the GI50 (SN12C) was 2.29 µM (inactive) and the GI50 (SNB-19) was > 54.3 µM (inactive). For the same compound, the GI50 (SNB-75) was 11.8 µM (inactive), the GI50 (SR) was 7.91 µM (inactive) and the GI50 (SW-620) was 7.26 µM (inactive). For the same compound, the GI50 (T47D) was 1.74 µM (inactive), the GI50 (TK-10) was 0.562 µM (active) and the GI50 (U-251) was 10.8 µM (inactive). For the same compound, the GI50 (UACC-257) was 0.708 µM (active), the GI50 (UACC-62) was 0.603 µM (active) and the GI50 (UO-31) was 11.7 µM (inactive).

In the case of O=C1CCC2(CC1CCSc1ccccc1)OCCO2 (stereo not drawn), the GI50 (786-0) is reported as > 100 µM (inactive), the GI50 (A498) is reported as > 100 µM (inactive) and the GI50 (A549) is reported as > 100 µM (inactive). For the same compound, the GI50 (ACHN) was > 100 µM (inactive), the GI50 (CAKI-1) was > 100 µM (inactive) and the GI50 (CCRF-CEM) was > 100 µM (inactive). For the same compound, the GI50 (COLO 205) was > 100 µM (inactive), the GI50 (DU-145) was > 100 µM (inactive) and the GI50 (EKVX) was > 100 µM (inactive). The GI50 (HCC 2998) was > 100 µM (inactive), the GI50 (HCT-15) was greater than 100 µM and the GI50 (HL-60) was 95.1 µM (inactive). For the same compound, the GI50 (HOP-62) was > 100 µM (inactive), the GI50 (HOP-92) was > 100 µM (inactive) and the GI50 (HT-29) was > 100 µM (inactive). For the same compound, the GI50 (Hs-578T) was > 100 µM (inactive), the GI50 (IGROV-1) was > 100 µM (inactive) and the GI50 (K562) was > 100 µM (inactive). For the same compound, the GI50 (KM12) was > 100 µM (inactive), the GI50 (LOX IMVI) was 98.9 µM (inactive) and the GI50 (M14) was > 100 µM (inactive). For the same compound, the GI50 (MCF7) was > 100 µM (inactive), the GI50 (MDA-MB-231) was > 100 µM (inactive) and the GI50 (MDA-MB-435) was > 100 µM (inactive). The GI50 (MDA-N) was > 100 µM (inactive), the GI50 (MOLT-4) was 81.8 µM (inactive) and the GI50 (Malme-3M) was > 100 µM (inactive). The GI50 (NCI-H226) was > 100 µM (inactive), the GI50 (NCI-H23) was > 100 µM (inactive) and the GI50 (NCI-H460) was > 100 µM (inactive). For the same compound, the GI50 (NCI-H522) was > 100 µM (inactive), the GI50 (NCI/ADR-RES) was > 100 µM (inactive) and the GI50 (OVCAR-3) was > 100 µM (inactive). The GI50 (OVCAR-4) was > 100 µM (inactive), the GI50 (OVCAR-5) was > 100 µM (inactive) and the GI50 (OVCAR-8) was > 100 µM (inactive). The GI50 (PC-3) was > 100 µM (inactive), the GI50 (RPMI-8226) was > 100 µM (inactive) and the GI50 (RXF 393) was > 100 µM (inactive). The GI50 (SF-268) was > 100 µM (inactive), the GI50 (SF-295) was > 100 µM (inactive) and the GI50 (SF-539) was > 100 µM (inactive). The GI50 (SK-MEL-28) was > 100 µM (inactive), the GI50 (SK-MEL-2) was > 100 µM (inactive) and the GI50 (SK-MEL-5) was 88.5 µM (inactive). For the same compound, the GI50 (SK-OV-3) was > 100 µM (inactive), the GI50 (SNB-19) was > 100 µM (inactive) and the GI50 (SNB-75) was > 100 µM (inactive). The GI50 (SR) was > 100 µM (inactive), the GI50 (SW-620) was > 100 µM (inactive) and the GI50 (T47D) was > 100 µM (inactive). For the same compound, the GI50 (TK-10) was > 100 µM (inactive), the GI50 (U-251) was > 100 µM (inactive) and the GI50 (UACC-257) was > 100 µM (inactive). For the same compound, the GI50 (UACC-62) was > 100 µM (inactive) and the GI50 (UO-31) was > 100 µM (inactive).

Reference: ChEMBL document CHEMBL1201862, “PubChem BioAssay data set” (2004)
